Converted amounts (≈) assume the structure as drawn. “Also recorded” adds a separate entry of the source. Like-named read-outs stand apart in the source and are kept apart here.
Columns and labels:
[1] = molecular target: T1, JNK1 (Homo sapiens, UniProt P45983); experiment: JNK1 biochemical assay (piperazine series); details: enantiomer comparison
Text: FIG. 21B depicts concentration-dependent inhibition of JNK1 with CDD-1722 and CDD-1723. Components of CDD-1722 and CD-1723 represent alternative building blocks which may be incorporated during optimization of pharmaceutical properties of JNK-I.

[2] = molecular target: T2, JNK3 (Homo sapiens, UniProt P53779); experiment: JNK3 kinase (intrinsic ATPase, Kinase-Glo) assay; type: biochemical
[3] = molecular target: T1, JNK1; experiment: Promega NanoBRET intracellular target engagement (tracer K10 displacement), JNK1; type: cell-based
[4] = molecular target: T2, JNK3; experiment: ThermoFisher SelectScreen, JNK3; type: binding
[5] = molecular target: T3, hVPS34 (Homo sapiens, UniProt Q8NEB9); experiment: ThermoFisher SelectScreen, hVPS34; type: binding; details: Table 4
T3 construct: purchased ThermoFisher (SelectScreen, outsourced service)
Experimental: (§1) To mitigate violation of the linear initial velocity principle, which is a problem in end-point assays when doing dose-responses, the enzyme concentration was carefully optimized, in a total assay volume of 25 μL. The assay was performed using 10 μM ATP, 0.02% Tween-20, kinase buffer from Cell Signaling (#9802) in white 384-well plates. The kinase reaction was done for 30 or 60 min at 30° C., and detection of leftover ATP was measured according to Promega's protocol. […] Fractional activities were obtained from normalized data. Non-linear regression (GraphPad Prism7) and a modified Morrison equation for tight binding was used to determine apparent Ki values for inhibitors, assuming no particular mode of inhibition. An orthogonal binding assay (LanthaScreen) was outsourced to ThermoFisher Scientific's SelectScreen Services to determine IC50 values.
(§2) One of the earliest compounds to be synthesized with favorable enzymatic activity towards JNK1 and JNK3 was CDD-2346. A KINOMEscan was performed for CDD-2346 to establish whether the selectivity of this chemical scaffold was suitable or required optimization. […] To confirm that the activity against each kinase was a true result and not a false positive, CDD-2346 was evaluated in kinase assays using ThermoFisher SelectScreen platform. The results from these assays are provided herein (Table 4). The important innovative steps described are the optimization of selectivity a) for JNK isoforms; b) for kinases considered “in-pathway”; and c) to avoid kinases considered “out-of-pathway”.

[6] = molecular target: T4, MEK4 (Homo sapiens, UniProt P45985); experiment: ThermoFisher SelectScreen, MEK4; type: binding
T4 construct: purchased ThermoFisher (SelectScreen)
T4 sequence (P45985 1-399): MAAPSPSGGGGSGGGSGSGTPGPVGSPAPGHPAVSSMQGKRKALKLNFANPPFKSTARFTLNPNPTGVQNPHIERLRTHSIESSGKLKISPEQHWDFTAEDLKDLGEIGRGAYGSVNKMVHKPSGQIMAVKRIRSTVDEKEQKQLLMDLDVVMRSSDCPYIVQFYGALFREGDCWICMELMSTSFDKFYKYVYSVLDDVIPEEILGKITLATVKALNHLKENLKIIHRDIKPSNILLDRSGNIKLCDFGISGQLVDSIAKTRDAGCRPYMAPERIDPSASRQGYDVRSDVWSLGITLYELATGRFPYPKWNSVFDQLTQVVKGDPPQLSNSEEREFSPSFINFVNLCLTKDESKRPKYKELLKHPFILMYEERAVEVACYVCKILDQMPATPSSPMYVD

[7] = molecular target: T5, CSNK1E (Homo sapiens, UniProt P49674); experiment: ThermoFisher SelectScreen, CSNK1E; type: binding
T5 construct: purchased ThermoFisher (SelectScreen)

[8] = molecular target: T6, JNK2 (Homo sapiens, UniProt P45984); experiment: Promega NanoBRET intracellular target engagement (tracer K10 displacement), JNK2; type: cell-based
[9] = In vitro metabolism in mouse liver microsomes; details: mouse, microsomes
Experimental: (§3) The target product profile seeks to deliver JNK inhibitor as a once daily oral administration. To prioritize compounds for further development, in vitro metabolism of several CDD JNK inhibitors were determined to approximate the plasma half-life and the rate of metabolism of the compounds in vivo.

[10] = In vitro metabolism in human liver microsomes; details: human, microsomes
Experimental: as §3

[11] = Solubility
[12] = molecular target: T1, JNK1; experiment: JNK1 kinase (intrinsic ATPase, Kinase-Glo) assay; type: biochemical
In short: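 Full-length construct not stated; kinases hydrolyse ATP without peptide substrate, reaction run 30 or 60 min at 30° C, remaining ATP read by Kinase-Glo luminescence with no-kinase controls. Apparent Ki from normalized fractional activities fitted to modified Morrison tight-binding equation; orthogonal LanthaScreen binding assay gave IC50.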

[13] = molecular target: T2, JNK3; experiment: Promega NanoBRET intracellular target engagement (tracer K10 displacement), JNK3; type: cell-based
[14] = molecular target: T6, JNK2; experiment: JNK2 kinase (intrinsic ATPase, Kinase-Glo) assay; type: biochemical
[15] = molecular target: T7, MEK5 (Homo sapiens, UniProt Q13163); experiment: ThermoFisher SelectScreen, MEK5; type: binding; details: Table 4
T7 construct: purchased ThermoFisher (SelectScreen, outsourced service)
T7 sequence (Q13163 1-448): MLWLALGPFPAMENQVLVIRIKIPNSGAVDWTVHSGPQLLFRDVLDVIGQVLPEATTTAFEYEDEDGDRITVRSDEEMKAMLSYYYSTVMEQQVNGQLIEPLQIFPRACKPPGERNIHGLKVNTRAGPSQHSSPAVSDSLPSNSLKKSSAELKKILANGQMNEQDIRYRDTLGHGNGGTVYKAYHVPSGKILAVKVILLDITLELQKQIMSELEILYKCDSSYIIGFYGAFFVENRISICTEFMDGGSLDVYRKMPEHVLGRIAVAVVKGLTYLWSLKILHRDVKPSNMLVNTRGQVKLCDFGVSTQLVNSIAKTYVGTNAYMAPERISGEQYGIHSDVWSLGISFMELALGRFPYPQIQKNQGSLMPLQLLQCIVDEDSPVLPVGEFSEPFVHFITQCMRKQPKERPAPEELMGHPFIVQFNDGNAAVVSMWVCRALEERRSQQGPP
Experimental: as §1, §2

[16] = molecular target: T8, CSNK1G1 (Homo sapiens, UniProt Q9HCP0); experiment: ThermoFisher SelectScreen, CSNK1G1; type: binding; details: Table 4
T8 construct: purchased ThermoFisher (SelectScreen)
Experimental: as §1, §2
No activity of CDD-2728 was detected for Atypical, Mutant, or Lipid kinases. To confirm CDD-2728 inhibition results in the KINOMEscan analysis, individual binding assays were performed on the kinases to which CDD-2728 bound using ThermoFisher SelectScreen.

[17] = molecular target: T9, CLK2 (Homo sapiens, UniProt P49760); experiment: ThermoFisher SelectScreen, CLK2; type: binding
T9 construct: purchased ThermoFisher (SelectScreen)

[18] = molecular target: T10, CSNK1D (Homo sapiens, UniProt P48730); experiment: ThermoFisher SelectScreen, CSNK1D; type: binding
T10 construct: purchased ThermoFisher (SelectScreen)

[19] = test system: HepG2 cells; experiment: HepG2 cell viability (ATP consumption); details: CDD-2575 25 μM; CDD-2728, CDD-2624 up to 75
Experimental: This assay reflects cell viability. […] To determine if the responses observed in endometriotic epithelial cells and endometriotic stromal cell cultures were cytotoxic, cell viability was performed in HepG2 cells.

[20] = test system: immortalized human endometriotic epithelial cells (iHEEC); experiment: Phosphorylation of JNK and Jun in iHEEC; type: cell-based
Text: FIG. 26A depicts the effects of CDD-2728 and CDD-3013 on phosphorylation of the JNK enzyme itself (i.e., representing MEK4 inhibition) and phosphorylation of pSer63 and pSer73 on the transcription factor Jun in immortalized human endometriotic epithelial cells (iHEEC). The HEEC cells are a well characterized cell line that are relevant for the evaluation of inflammatory endpoints and measures of epithelial-to-mesenchymal transitions (EMT). […] This is consistent with the potency relationships of CDD-2728 relative to bentamapimod observed in cytokine gene expression described above in iHEEC cells and primary human stromal endometriotic cells. […] SP600125 has been frequently described as a poorly-selective JNK-I but in this context provides additional confirmation of inhibition of the JNK target kinase for CDD-2728. […] This adds further support to the critical role of JNK-1 to the therapeutic effect of the JNK inhibitors of the disclosure.

T6 sequence (P45984 whole entry): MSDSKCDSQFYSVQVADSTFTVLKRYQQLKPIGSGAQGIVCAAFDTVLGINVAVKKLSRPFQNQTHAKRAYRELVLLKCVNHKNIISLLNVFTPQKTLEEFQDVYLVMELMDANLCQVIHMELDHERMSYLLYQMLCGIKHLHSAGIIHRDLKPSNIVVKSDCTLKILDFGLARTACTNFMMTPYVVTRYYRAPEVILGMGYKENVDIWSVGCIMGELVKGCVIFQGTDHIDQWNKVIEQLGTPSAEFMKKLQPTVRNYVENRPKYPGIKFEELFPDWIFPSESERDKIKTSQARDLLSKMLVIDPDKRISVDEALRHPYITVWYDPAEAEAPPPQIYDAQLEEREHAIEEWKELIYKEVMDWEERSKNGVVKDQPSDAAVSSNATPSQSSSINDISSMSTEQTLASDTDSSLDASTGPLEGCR
T3 sequence (Q8NEB9 whole entry): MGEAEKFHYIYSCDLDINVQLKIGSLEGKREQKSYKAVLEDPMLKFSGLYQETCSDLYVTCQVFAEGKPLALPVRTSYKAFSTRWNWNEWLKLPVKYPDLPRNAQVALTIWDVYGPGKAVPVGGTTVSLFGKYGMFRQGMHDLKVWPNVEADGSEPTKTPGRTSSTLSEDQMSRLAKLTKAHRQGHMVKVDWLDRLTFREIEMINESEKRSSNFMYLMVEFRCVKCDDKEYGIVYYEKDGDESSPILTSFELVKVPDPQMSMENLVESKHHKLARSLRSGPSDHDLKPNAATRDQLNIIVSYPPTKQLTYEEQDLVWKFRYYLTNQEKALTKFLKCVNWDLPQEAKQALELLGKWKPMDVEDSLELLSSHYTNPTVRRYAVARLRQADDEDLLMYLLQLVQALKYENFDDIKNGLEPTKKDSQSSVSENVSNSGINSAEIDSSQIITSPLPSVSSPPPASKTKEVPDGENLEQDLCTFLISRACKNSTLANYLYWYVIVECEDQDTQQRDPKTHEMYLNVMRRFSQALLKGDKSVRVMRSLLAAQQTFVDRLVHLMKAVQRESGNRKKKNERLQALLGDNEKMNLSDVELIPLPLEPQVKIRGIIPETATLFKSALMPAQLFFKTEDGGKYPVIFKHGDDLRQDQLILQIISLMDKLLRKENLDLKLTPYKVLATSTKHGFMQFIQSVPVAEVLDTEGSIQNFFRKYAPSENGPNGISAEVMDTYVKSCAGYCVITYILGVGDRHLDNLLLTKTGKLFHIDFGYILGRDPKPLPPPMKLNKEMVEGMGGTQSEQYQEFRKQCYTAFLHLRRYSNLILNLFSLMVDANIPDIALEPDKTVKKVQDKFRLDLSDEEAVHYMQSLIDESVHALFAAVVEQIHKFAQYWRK
T1 sequence (P45983 whole entry): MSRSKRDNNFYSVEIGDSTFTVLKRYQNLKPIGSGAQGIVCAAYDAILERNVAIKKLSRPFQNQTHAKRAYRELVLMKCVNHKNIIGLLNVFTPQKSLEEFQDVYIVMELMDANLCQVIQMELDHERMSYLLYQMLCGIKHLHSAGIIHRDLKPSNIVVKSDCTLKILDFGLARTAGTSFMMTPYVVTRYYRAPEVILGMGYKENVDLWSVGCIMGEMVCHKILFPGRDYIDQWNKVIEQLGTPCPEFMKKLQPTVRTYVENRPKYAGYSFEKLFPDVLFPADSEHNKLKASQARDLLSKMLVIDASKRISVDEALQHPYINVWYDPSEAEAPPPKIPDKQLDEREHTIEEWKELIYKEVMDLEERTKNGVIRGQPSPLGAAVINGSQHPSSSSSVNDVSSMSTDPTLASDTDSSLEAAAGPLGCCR
T2 sequence (P53779 whole entry): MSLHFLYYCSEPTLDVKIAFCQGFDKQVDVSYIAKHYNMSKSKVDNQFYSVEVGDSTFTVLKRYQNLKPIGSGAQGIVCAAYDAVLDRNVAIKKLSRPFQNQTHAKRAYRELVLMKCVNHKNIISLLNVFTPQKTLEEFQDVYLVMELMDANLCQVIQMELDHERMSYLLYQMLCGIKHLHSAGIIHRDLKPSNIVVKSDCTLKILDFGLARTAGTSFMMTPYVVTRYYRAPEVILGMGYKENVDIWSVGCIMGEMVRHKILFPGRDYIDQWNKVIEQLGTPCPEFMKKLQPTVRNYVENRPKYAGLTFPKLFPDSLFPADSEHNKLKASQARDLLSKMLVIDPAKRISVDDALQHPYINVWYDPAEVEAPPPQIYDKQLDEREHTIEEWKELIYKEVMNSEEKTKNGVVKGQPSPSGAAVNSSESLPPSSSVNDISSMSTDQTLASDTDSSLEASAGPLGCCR
T5 sequence (P49674 whole entry): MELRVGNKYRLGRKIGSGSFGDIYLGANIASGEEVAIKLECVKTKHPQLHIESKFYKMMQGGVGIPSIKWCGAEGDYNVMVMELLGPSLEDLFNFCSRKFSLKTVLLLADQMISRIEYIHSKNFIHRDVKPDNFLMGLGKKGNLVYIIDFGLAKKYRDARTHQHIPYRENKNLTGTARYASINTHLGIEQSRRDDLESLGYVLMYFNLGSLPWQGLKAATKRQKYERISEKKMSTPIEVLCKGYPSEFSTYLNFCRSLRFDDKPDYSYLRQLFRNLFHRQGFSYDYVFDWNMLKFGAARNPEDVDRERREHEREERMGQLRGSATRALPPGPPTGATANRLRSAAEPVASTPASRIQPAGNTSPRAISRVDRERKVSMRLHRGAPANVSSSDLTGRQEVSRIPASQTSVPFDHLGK
T10 sequence (P48730 whole entry): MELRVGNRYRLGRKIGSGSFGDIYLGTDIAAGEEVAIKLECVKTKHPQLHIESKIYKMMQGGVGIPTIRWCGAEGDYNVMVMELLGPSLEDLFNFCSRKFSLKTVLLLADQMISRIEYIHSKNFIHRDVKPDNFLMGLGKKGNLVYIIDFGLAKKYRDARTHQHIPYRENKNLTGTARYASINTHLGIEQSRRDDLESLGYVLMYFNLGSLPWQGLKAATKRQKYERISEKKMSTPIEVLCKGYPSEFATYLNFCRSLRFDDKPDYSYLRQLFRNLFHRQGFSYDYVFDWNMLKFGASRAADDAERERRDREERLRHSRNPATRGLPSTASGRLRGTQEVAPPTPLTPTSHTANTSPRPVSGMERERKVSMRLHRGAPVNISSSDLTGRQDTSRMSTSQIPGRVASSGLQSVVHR
T9 sequence (P49760 whole entry): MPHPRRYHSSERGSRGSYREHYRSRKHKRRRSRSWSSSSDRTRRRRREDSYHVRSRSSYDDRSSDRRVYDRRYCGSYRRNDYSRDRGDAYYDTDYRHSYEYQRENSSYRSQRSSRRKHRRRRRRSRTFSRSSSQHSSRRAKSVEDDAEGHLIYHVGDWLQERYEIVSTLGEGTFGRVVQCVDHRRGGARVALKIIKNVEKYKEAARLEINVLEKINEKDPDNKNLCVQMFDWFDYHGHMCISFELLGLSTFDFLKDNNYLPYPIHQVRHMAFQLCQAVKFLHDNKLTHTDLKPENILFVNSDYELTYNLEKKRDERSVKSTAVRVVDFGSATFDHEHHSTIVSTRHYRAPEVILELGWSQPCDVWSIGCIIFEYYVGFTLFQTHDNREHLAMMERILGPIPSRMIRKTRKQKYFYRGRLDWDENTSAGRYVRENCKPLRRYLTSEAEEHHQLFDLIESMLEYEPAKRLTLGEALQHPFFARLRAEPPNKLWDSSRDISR
T8 sequence (Q9HCP0 whole entry): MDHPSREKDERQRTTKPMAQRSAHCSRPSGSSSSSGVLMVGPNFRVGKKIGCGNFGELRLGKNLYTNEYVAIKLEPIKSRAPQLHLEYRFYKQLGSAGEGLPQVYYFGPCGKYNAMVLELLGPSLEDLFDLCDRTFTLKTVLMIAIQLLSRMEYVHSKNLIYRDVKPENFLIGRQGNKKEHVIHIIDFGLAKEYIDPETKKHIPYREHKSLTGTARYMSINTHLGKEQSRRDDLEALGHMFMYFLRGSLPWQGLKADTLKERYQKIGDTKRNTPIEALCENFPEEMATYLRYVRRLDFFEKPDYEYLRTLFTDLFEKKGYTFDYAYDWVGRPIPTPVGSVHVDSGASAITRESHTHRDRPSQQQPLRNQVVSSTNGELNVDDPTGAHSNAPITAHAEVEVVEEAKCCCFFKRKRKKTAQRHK

Row | SMILES | Kd ([2]; Table 3a, read-out: Kd JNK3) [nM] | IC50 [3] [nM] | Kd [4] [nM] | Kd [5] [nM] | Kd [6] [nM] | IC50 [8] [nM] | half-life [9] [min] | half-life [10] [min] | solubility [11] [µM] | Kd [12] [nM] | IC50 [13] [nM] | Kd ([14]; Table 3a, read-out: Kd JNK2) [nM] | also measured
1 | CNC(=O)CN1[C@@H](CCNC(=O)OCc2ccccc2)CN(Cc2cccc3ccnn23)C[C@@H]1CC(=O)NCCCN(C)c1ccc(F)cc1 [CDD-2009, benzyl (2-((2S,6S)-6-(2-((3-((4-fluorophenyl)(methyl)amino)propyl)amino)-2-oxoethyl)-1-(2-(methylamino)-2-oxoethyl)-4-(pyrazolo[1,5-a]pyridin-7-ylmethyl)piperazin-2-yl)ethyl)carbamate] |  |  |  |  |  |  |  |  |  |  |  |  | JNK1 activity relative to CDD-1723 (fold less active) [1]: 20 fold
2 | CNCc1ccc(NC(=O)c2ccn3ncc(-c4cncc5ccccc45)c3c2)cc1 [CDD-2347, 3-(isoquinolin-4-yl)-N-(4-((methylamino)methyl)phenyl)pyrazolo[1,5-a]pyridine-5-carboxamide] | 1.38 ± 0.21 | 2200 | 1.38 | 776 | 483 | 990 | 33.1 | 30.3 | 134 (≈ 54.7 µg/mL) | 0.39 ± 0.11 | 2000 | 1.7 ± 0.12 | Kd [7]: 3180 nM
3 | CNCc1ccc(NC(=O)c2ccn3ncc(-c4cnc(N)nc4)c3c2)cc1 [CDD-2387, 3-(2-aminopyrimidin-5-yl)-N-(4-((methylamino)methyl)phenyl)pyrazolo[1,5-a]pyridine-5-carboxamide] | 8.44 ± 0.66 |  | 8.4 | 130 | 262 |  | 121 | 123 | 254 (≈ 94.8 µg/mL) | 2.96 ± 0.32 |  | 28.8 ± 1.8 | Kd [7]: 2660 nM; Kd [15]: 40.7 µM
4 | COc1ccc(NC(=O)c2cc3c(-c4cnc5[nH]ccc5c4)cccc3s2)cc1C(=O)N1CCCCC1 [CDD-2491, N-(4-methoxy-3-(piperidine-1-carbonyl)phenyl)-4-(1H-pyrrolo[2,3-b]pyridin-5-yl)benzo[b]thiophene-2-carboxamide] |  |  | 1.41 | 38000 | 60.2 |  | 15.6 | 12.8 | 2.5 (≈ 1.28 µg/mL) | 0.28 |  |  | Kd [2]: 1.41 ± 0.12 nM; Kd [16]: 95 µM; Kd [17]: 1170 nM; Kd [18]: 8.35 µM; Kd [14]: 0.43 ± 0.09 nM
5 | CNCc1ccc(NC(=O)c2cc3c(-c4cnc5[nH]ccc5c4)cccc3s2)cc1 [CDD-2575, N-(4-((methylamino)methyl)phenyl)-4-(1H-pyrrolo[2,3-b]pyridin-5-yl)benzo[b]thiophene-2-carboxamide] | 2.76 ± 0.51 | 2200 |  |  |  | 2300 | 117 | 409 | 40.6 (≈ 16.7 µg/mL) | 1.15 ± 0.28 | 4800 | 1.76 ± 0.15 | effect on HepG2 cell viability / ATP consumption [19]: non-specific decreases in cell viability were pronounced for CDD-2575 at 25 μM; also recorded: reduced ATP consumption
6 | CN(C)C(=O)c1cc(NC(=O)c2nc3c(-c4cnc5[nH]ccc5c4)cccc3s2)ccc1O [CDD-2856, N-(3-(dimethylcarbamoyl)-4-hydroxyphenyl)-4-(1H-pyrrolo[2,3-b]pyridin-5-yl)benzo[d]thiazole-2-carboxamide] | 1.03 ± 0.07 | 1000 |  |  |  | 1100 | 55.5 | 225 | 3.8 (≈ 1.74 µg/mL) | 0.27 ± 0.08 | 2200 | 3.14 ± 0.33 | phosphorylation of JNK1 (P46) and JNK2 (P54) [20]: inhibits the upstream phosphorylation of JNK1 and JNK2; phosphorylation of Jun at pSer63 and pSer73 [20]: inhibits phosphorylation more effectively than Tanzisertib
7 | Oc1c2ccccc2c2c3c(cccc13)N=N2 [SP600125, reference compound] |  |  |  |  |  |  |  |  |  |  |  |  | phosphorylation of JNK1 (P46) and JNK2 (P54) [20]: MEK4-dependent phosphorylation of JNK1 and JNK2; phosphorylation of Jun at pSer63 and pSer73 [20]: inhibits pSer63 and pSer73 Jun

— patent US20260294922A1, “Inhibitors of JUN N-Terminal Kinases (JNK1, JNK2, and/or JNK3) and Mitogen-Activated Protein Kinases (MAPK8, MAPK9, and/or MAPK10) and Methods of Using Same” (Baylor College of Medicine, priority 2023, published 2026)
